Laboratory results as given in the supplement of paper PMC10920090.

Assays:
MDA-MB-231 [1] = test: drug sensitivity score (DSS), cytotoxicity CellTox Green; higher = more cytotoxic; extreme values may be limits of the assay; details: 72 h
MDA-MB-231 [2] = test: drug sensitivity score (DSS), cell viability CellTiter-Glo; higher = more sensitive; extreme values may be limits of the assay; details: 72 h
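For drug sensitivity score (DSS), cytotoxicity CellTox Green in this document: DSS summarises each dose–response curve by combining IC50, EC50, maximal inhibition and efficacy across drug concentrations.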

SMILES | drug sensitivity score (MDA-MB-231 [1]; shRNA: shPPFIA1_1) [DSS] | drug sensitivity score (MDA-MB-231 [1]; shRNA: shScramble) [DSS] | drug sensitivity score (MDA-MB-231 [2]; shRNA: shPPFIA1_1) [DSS] | drug sensitivity score (MDA-MB-231 [2]; shRNA: shScramble) [DSS]
c1cc(CN2CCCNCCNCCCNCC2)ccc1CN1CCCNCCNCCCNCC1 [Plerixafor] | 0 | 0 | 0 | 0
CO[C@H](C(=O)[C@@H](O)[C@@H](C)O)[C@@H]1Cc2cc3cc(O[C@H]4C[C@@H](O[C@@H]5C[C@@H](O)[C@H](O)[C@@H](C)O5)[C@H](O)[C@@H](C)O4)c(C)c(O)c3c(O)c2C(=O)[C@H]1O[C@H]1C[C@@H](O[C@@H]2C[C@@H](O)[C@@H](O[C@@H]3C[C@](C)(O)[C@H](O)[C@@H](C)O3)[C@@H](C)O2)[C@H](O)[C@@H](C)O1 [Plicamycin] | 8.5 | 7.1 | 6.2 | 11.6
Nc1cccc2c1C(=O)N(C1CCC(=O)NC1=O)C2=O (stereo unspecified) [Pomalidomide] | 0 | 0 | 0 | 0
C=CC(=O)N1CCC(Oc2cc3c(Nc4ccc(Cl)c(Cl)c4F)ncnc3cc2OC)CC1 [Poziotinib] | 0 | 0 | 3.1 | 0
CCCCc1nc2cc(/C=C/C(=O)NO)ccc2n1CCN(CC)CC [Pracinostat] | 8.1 | 8.5 | 10.6 | 11.9
CC[C@H](C)C(=O)O[C@H]1C[C@H](O)C=C2C=C[C@H](C)[C@H](CC[C@@H](O)C[C@@H](O)CC(=O)O)[C@H]21 [Pravastatin] | 0 | 0 | 2.5 | 1.8
C[C@]12C=CC(=O)C=C1CC[C@@H]1[C@@H]2[C@@H](O)C[C@@]2(C)[C@H]1CC[C@]2(O)C(=O)CO [Prednisolone] | 0 | 0 | 0 | 0
C[C@]12C=CC(=O)C=C1CC[C@@H]1[C@@H]2C(=O)C[C@@]2(C)[C@H]1CC[C@]2(O)C(=O)CO [Prednisone] | 0 | 0 | 0 | 0
COc1cccc(OCCCN)c1-c1cc(Nc2cnc(C#N)cn2)n[nH]1 [Prexasertib] | 21 | 6.9 | 13.2 | 29.8
CNNCc1ccc(C(=O)NC(C)C)cc1 [Procarbazine] | 0 | 0 | 0 | 0
Cc1cc(-c2ncc(-c3cccnc3)cc2/C=C/c2ccccc2)cnc1-c1cccnc1 [Pyridoclax] | 0.3 | 0 | 1.9 | 5.9
Cn1cc(CNCC2CCN(c3ncc(C(=O)NO)cn3)CC2)c2ccccc21 [Quisinostat] | 8.6 | 8.2 | 8.8 | 11.2
CC(C)(C)c1cc(NC(=O)Nc2ccc(-c3cn4c(n3)sc3cc(OCCN5CCOCC5)ccc34)cc2)no1 [Quizartinib] | 0 | 0 | 0 | 0
Cn1c(Nc2ccc(C(F)(F)F)cc2)nc2cc(Oc3ccnc(-c4ncc(C(F)(F)F)[nH]4)c3)ccc21 [RAF265] | 0 | 1.6 | 0 | 1.8
CNC(=O)c1ccc(N2C(=S)N(c3ccc(C#N)c(C(F)(F)F)c3)C(=O)C23CCC3)cc1F [RD162] | 0.8 | 0 | 0 | 0
CCNC(=O)Nc1ccc(-c2nc3c(c(N4CCOC[C@@H]4C)n2)CCN(C2COC2)C3)cc1 [RG-7603] | 0 | 0 | 0 | 2.7
Nc1cc(F)ccc1NC(=O)/C=C/c1cnn(C/C=C/c2ccccc2)c1 [RGFP966] | 3.1 | 0 | 2.6 | 0.2
Cc1cnc(NC(=O)Nc2cc(Br)c(C)cc2OC[C@@H]2CNCCO2)cn1 [Rabusertib] | 0 | 0 | 5.3 | 2
C[C@@H]1C[C@H]2O[C@@H]2/C=C\C=C\C(=O)Cc2c(Cl)c(O)cc(O)c2C(=O)O1 [Radicicol] | 0 | 1.9 | 2 | 6.4
CC(C)(C)Cn1c(N)nc2ccc(-c3[nH]c(C(C)(C)C)nc3-c3ccc(F)cc3)nc21 [Ralimetinib] | 0 | 0 | 0.2 | 0

SMILES | drug sensitivity score (MDA-MB-231 [1]; shRNA: shPPFIA1_1) [DSS] | drug sensitivity score (MDA-MB-231 [1]; shRNA: shScramble) [DSS] | drug sensitivity score (MDA-MB-231 [2]; shRNA: shPPFIA1_1) [DSS] | drug sensitivity score (MDA-MB-231 [2]; shRNA: shScramble) [DSS]
O=C(c1ccc(OCCN2CCCCC2)cc1)c1c(-c2ccc(O)cc2)sc2cc(O)ccc12 [Raloxifene] | 0.4 | 0 | 3.5 | 3.1
Cc1nc(=O)c2cc(CN(C)c3ccc(C(=O)N[C@@H](CCC(=O)O)C(=O)O)s3)ccc2[nH]1 [Raltitrexed] | 0 | 0 | 0 | 0
CNC(=O)c1cc(Oc2ccc(NC(=O)Nc3cc(C(C)(C)C)nn3-c3ccc4ncccc4c3)c(F)c2)ccn1 [Rebastinib] | 0 | 0 | 0 | 0
COc1cc(F)c(F)c(Nc2ccc(I)cc2F)c1NS(=O)(=O)C1(C[C@H](O)CO)CC1 [Refametinib] | 10.5 | 18.6 | 6 | 10.6
CNC(=O)c1cc(Oc2ccc(NC(=O)Nc3ccc(Cl)c(C(F)(F)F)c3)c(F)c2)ccn1 [Regorafenib] | 8.2 | 4.3 | 3.6 | 7
CN(C)Cc1ccc(S(=O)(=O)n2ccc(/C=C/C(=O)NO)c2)cc1 [Resminostat] | 7.5 | 4.4 | 2.5 | 7.1
CN(C)C(=O)c1cc2cnc(Nc3ccc(N4CCNCC4)cn3)nc2n1C1CCCC1 [Ribociclib] | 0 | 0 | 0 | 0
CO[C@H]1C[C@@H]2CC[C@@H](C)[C@@](O)(O2)C(=O)C(=O)N2CCCC[C@H]2C(=O)O[C@H]([C@H](C)C[C@@H]2CC[C@@H](OP(C)(C)=O)[C@H](OC)C2)CC(=O)[C@H](C)/C=C(\C)[C@@H](O)[C@@H](OC)C(=O)[C@H](C)C[C@H](C)/C=C/C=C/C=C/1C [Ridaforolimus] | 0 | 0 | 0 | 1.6
COc1cc(OC)c(/C=C/S(=O)(=O)Cc2ccc(OC)c(NCC(=O)O)c2)c(OC)c1 [Rigosertib] | 2.4 | 2.4 | 0 | 5.3
C=CC(=O)Nc1cccc(Nc2nc(Nc3ccc(N4CCN(C(C)=O)CC4)cc3OC)ncc2C(F)(F)F)c1 [Rociletinib] | 0 | 0 | 0 | 2.8
O=C(CCCCCCNC(=O)c1cnc(N(c2ccccc2)c2ccccc2)nc1)NO [Rocilinostat] | 6.7 | 1 | 2.1 | 3.5
CS(=O)(=O)c1ccc(C2=C(c3ccccc3)C(=O)OC2)cc1 [Rofecoxib] | 0 | 0 | 0 | 0
C/C=C1\NC(=O)[C@H]2CSSCC/C=C/[C@H](CC(=O)N[C@H](C(C)C)C(=O)N2)OC(=O)[C@H](C(C)C)NC1=O [Romidepsin] | 33.6 | 26.9 | 20.5 | 29
CN(C)C[C@@H]1CCn2cc(c3ccccc32)C2=C(C(=O)NC2=O)c2cn(c3ccccc23)CCO1 [Ruboxistaurin] | 3.8 | 5.5 | 7.2 | 7
CNCc1ccc(-c2[nH]c3cc(F)cc4c3c2CCNC4=O)cc1 [Rucaparib] | 0 | 0 | 0 | 0
N#CC[C@H](C1CCCC1)n1cc(-c2ncnc3[nH]ccc23)cn1 [Ruxolitinib] | 0 | 0 | 0.6 | 2.1
CC(C)N(CCCNC(=O)Nc1ccc(C(C)(C)C)cc1)C[C@H]1O[C@@H](n2cc(Br)c3c(N)ncnc32)[C@H](O)[C@@H]1O [SGC0946] | 5.5 | 0.6 | 5 | 1.5
COc1ccc(CCc2nc3cc(-c4c(C)noc4C)ccc3n2C[C@H](C)N2CCOCC2)cc1Cl [SGC-CBP30] | 0 | 0 | 0 | 2.4
CN1CCC(CNc2ccc3ncc(-c4cccc(OC(F)(F)F)c4)n3n2)CC1 [SGI-1776] | 4.9 | 4.7 | 9 | 9
Cn1cc(-c2ccc3nnc(Sc4ccc5ncccc5c4)n3n2)cn1 [SGX-523] | 0 | 0.9 | 0.9 | 0

SMILES | drug sensitivity score (MDA-MB-231 [1]; shRNA: shPPFIA1_1) [DSS] | drug sensitivity score (MDA-MB-231 [1]; shRNA: shScramble) [DSS] | drug sensitivity score (MDA-MB-231 [2]; shRNA: shPPFIA1_1) [DSS] | drug sensitivity score (MDA-MB-231 [2]; shRNA: shScramble) [DSS]
CN(CC(=O)N(Cc1ccc(C2CCCCC2)cc1)c1ccc(C(=O)O)cc1)S(=O)(=O)c1c(F)c(F)c(F)c(F)c1F [SH-4-54] | 7.3 | 7.7 | 3.8 | 5.7
CC(C)NC(=O)COc1cccc(-c2nc(Nc3ccc4[nH]ncc4c3)c3ccccc3n2)c1 [SLx-2119] | 0 | 0 | 0 | 0
CCc1c2c(nc3ccc(O)cc13)-c1cc3c(c(=O)n1C2)COC(=O)[C@]3(O)CC [SN-38] | 14.9 | 2 | 0.2 | 7.6
CC(C)(C)c1cnc(CSc2cnc(NC(=O)C3CCNCC3)s2)o1 [SNS-032] | 10.5 | 6.3 | 5.8 | 13.1
O=C(Nc1cccc(Cl)c1)Nc1ncc(CCNc2ncnc3ccsc23)s1 [SNS-314] | 0 | 0 | 0 | 0
Cc1cc2c(C(=O)NC[C@H](C)c3ccccc3)c(O)c(O)cc2c(O)c1-c1c(C)cc2c(C(=O)NC[C@H](C)c3ccccc3)c(O)c(O)cc2c1O [Sabutoclax] | 11.4 | 5.6 | 11.8 | 13.6
CNC(=O)CN1CCC(Oc2cc3c(Nc4cccc(Cl)c4F)ncnc3cc2OC)CC1 [Sapitinib] | 0 | 0 | 0 | 8.5
CN1CCN(CCOc2cc(OC3CCOCC3)c3c(Nc4c(Cl)ccc5c4OCO5)ncnc3c2)CC1 [Saracatinib] | 2.5 | 1.3 | 2.9 | 2.7
CC[C@H](CO)Nc1nc(NCc2ccccc2)c2ncn(C(C)C)c2n1 [Seliciclib] | 0 | 0 | 0 | 0
O=C(/C=C\n1cnc(-c2cc(C(F)(F)F)cc(C(F)(F)F)c2)n1)NNc1cnccn1 [Selinexor] | 5.8 | 8.1 | 8.6 | 13.5
Cn1cnc2c(F)c(Nc3ccc(Br)cc3Cl)c(C(=O)NOCCO)cc21 [Selumetinib] | 3.8 | 8 | 0.3 | 5.2
Cc1cc(C)c(/C=C2\C(=O)Nc3ccccc32)[nH]1 [Semaxanib] | 0.2 | 3.5 | 0 | 0
c1ccc2c(CCNc3ccc(Nc4ccncc4)cc3)c[nH]c2c1 [Serdemetan] | 0 | 0 | 3 | 0.7
O=C(O)c1ccc2c(c1)nc(Nc1cccc(Cl)c1)c1ccncc12 [Silmitasertib] | 0 | 0 | 0 | 3.5
CO[C@H]1C[C@@H]2CC[C@@H](C)[C@@](O)(O2)C(=O)C(=O)N2CCCC[C@H]2C(=O)O[C@H]([C@H](C)C[C@@H]2CC[C@@H](O)[C@H](OC)C2)CC(=O)[C@H](C)/C=C(\C)[C@@H](O)[C@@H](OC)C(=O)[C@H](C)C[C@H](C)/C=C/C=C/C=C/1C [Sirolimus] | 0 | 0 | 0 | 6
Cc1c(C(=O)Nc2ccc(N3C[C@@H](C)O[C@@H](C)C3)nc2)cccc1-c1ccc(OC(F)(F)F)cc1 [Sonidegib] | 0 | 0 | 1.1 | 2.4
C=CCN(/C=C1/C(=O)O[C@H](COC)[C@@]2(C)C1=C(O)C(=O)C1=C2[C@H](OC(C)=O)C[C@]2(C)C(=O)CC[C@@H]12)CC=C [Sonolisib] | 0 | 0 | 0 | 0
CNC(=O)c1cc(Oc2ccc(NC(=O)Nc3ccc(Cl)c(C(F)(F)F)c3)cc2)ccn1 [Sorafenib] | 0 | 0 | 0 | 0
CN1CCN(c2nc(C3=C(c4c[nH]c5ccccc45)C(=O)NC3=O)c3ccccc3n2)CC1 [Sotrastaurin] | 0.7 | 0 | 1 | 0
